For data set [1], the system named is NMDA receptor. In words: Inhibition of NMDA/glycine-induced increases in intracellular calcium in cultured rat cerebellar granule cells (RCGC). The data set is classed as cell-based. As to conditions: NMDA/glycine-induced increases in intracellular calcium, cultured rat cerebellar granule cells; read-out: IC50 (μM) vs. NMDA. Background: Calcium flux is commonly read through the fluorescence of an indicator in the cells.

The test system of another data set is induction of LTP. Set-up: species or system rat. As to conditions: for induction of LTP (p<0.05): slices superfused 30-60 min.
For data set [2], the system named is NMDA receptor-ionophore complex (site labeled by [3H]MK-801). Nature of the data set: Inhibition of [3H]MK-801 binding in rat cortical/hippocampal washed membrane preparations. The settings on record: for IC50: read-out: IC50 (μM) vs. [3H]MK-801, rat cortical/hippocampal washed membranes.
In data set [3] the test system is NMDA receptor. As to conditions: rat hippocampal slices. Here is the method:
Glutamate-mediated transmission at synapses of Schaffer collateral fibers and CA1 pyramidal cells was measured in slices of rat brain containing the hippocampus. This assay measures electrophysiologically the postsynaptic depolarization caused by the presynaptic release of glutamate, and can readily distinguish synaptic transmission mediated by NMDA or AMPA receptors.

In a further data set the test system is sound-induced seizures. In words: Sound-induced seizures in Frings mice (reflex epilepsy). As to conditions: for IC50, prevention of sound-induced seizures: intracerebroventricular (i.c.v.) injection; for ED50: Mus musculus, ip, Frings mice. It is filed as in vivo.
The test system of another data set is motor performance. Nature of the data set: Acute motor impairment (rotorod) in mice. As to conditions: Frings mice; for TD50, acute motor impairment: i.c.v. injection. The procedure:
(§1) In this assay, Frings and CF1 mice were injected with test compound and placed on a knurled rod which rotated at a speed of 6 rpm. The ability of the mice to maintain equilibrium for long periods of time was determined; those mice that were unable to maintain equilibrium on the rotorod for 1 min in each of 3 trials were considered impaired.

The test system of data set [4] is mean arterial blood pressure. As to conditions: for no effect on mean arterial blood pressure / no (significant) cardiovascular activity at doses up to: i.v.
Data set [5] concerns central muscarinic cholinergic receptor. It is filed as binding, rat.
Another data set deals with T1, serotonin uptake site (Rattus norvegicus, UniProt P31652).
T1 construct: from tissue; host or cells: rat forebrain membranes (per the assay title)
T1 sequence (P31652 whole entry): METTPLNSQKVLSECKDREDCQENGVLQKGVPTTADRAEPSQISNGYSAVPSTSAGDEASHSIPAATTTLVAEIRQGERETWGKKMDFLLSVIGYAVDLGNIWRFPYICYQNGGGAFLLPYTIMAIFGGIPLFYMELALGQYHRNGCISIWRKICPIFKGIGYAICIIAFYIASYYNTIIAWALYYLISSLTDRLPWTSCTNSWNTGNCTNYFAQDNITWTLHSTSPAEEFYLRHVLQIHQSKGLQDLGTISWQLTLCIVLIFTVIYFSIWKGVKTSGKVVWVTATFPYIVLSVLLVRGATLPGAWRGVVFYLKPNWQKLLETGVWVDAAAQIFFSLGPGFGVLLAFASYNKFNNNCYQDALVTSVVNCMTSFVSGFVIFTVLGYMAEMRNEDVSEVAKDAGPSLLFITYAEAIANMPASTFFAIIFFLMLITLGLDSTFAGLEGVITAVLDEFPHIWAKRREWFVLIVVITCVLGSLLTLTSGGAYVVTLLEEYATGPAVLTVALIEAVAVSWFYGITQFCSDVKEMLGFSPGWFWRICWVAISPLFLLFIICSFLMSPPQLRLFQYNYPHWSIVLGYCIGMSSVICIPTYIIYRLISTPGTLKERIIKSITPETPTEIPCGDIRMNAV
Nature of the data set: Serotonin uptake binding assay: [3H]citalopram binding to rat forebrain membranes.

Another data set has as its system behavior. In words: Behavioral effects in conscious male NMRI mice.
A short description of the next data set: in vivo. The settings on record: Frings, mouse, in vivo, ip. Here is the method:
as §1

For another data set, the target named is T2, dopamine uptake site (Cavia porcellus, UniProt H0WCX4).
T2 construct: from tissue; host or cells: guinea pig striatal membranes (per the assay title)
T2 sequence (H0WCX4 1-619): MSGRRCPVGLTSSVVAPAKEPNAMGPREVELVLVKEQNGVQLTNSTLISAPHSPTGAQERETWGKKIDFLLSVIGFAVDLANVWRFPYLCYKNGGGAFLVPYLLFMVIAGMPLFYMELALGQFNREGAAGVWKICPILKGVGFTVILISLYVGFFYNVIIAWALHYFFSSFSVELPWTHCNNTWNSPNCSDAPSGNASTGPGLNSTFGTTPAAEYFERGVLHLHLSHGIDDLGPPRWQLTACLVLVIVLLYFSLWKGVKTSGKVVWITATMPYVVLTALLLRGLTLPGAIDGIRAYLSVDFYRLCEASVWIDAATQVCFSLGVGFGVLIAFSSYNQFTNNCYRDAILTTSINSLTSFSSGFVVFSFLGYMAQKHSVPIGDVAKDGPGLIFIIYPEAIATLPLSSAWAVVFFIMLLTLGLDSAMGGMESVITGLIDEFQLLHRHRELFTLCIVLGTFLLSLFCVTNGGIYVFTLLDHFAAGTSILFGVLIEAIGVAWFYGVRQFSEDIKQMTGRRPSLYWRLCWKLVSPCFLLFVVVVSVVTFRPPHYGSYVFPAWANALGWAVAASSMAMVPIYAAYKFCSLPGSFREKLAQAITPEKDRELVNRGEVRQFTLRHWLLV
Nature of the data set: Dopamine uptake binding assay: [3H]WIN-35,428 binding to guinea pig striatal membranes.

In data set [6] the target is T3, norepinephrine uptake site (Rattus norvegicus, UniProt Q63380).
T3 construct: from tissue; host or cells: rat cortical membranes (per the assay title)
T3 sequence (Q63380 1-617): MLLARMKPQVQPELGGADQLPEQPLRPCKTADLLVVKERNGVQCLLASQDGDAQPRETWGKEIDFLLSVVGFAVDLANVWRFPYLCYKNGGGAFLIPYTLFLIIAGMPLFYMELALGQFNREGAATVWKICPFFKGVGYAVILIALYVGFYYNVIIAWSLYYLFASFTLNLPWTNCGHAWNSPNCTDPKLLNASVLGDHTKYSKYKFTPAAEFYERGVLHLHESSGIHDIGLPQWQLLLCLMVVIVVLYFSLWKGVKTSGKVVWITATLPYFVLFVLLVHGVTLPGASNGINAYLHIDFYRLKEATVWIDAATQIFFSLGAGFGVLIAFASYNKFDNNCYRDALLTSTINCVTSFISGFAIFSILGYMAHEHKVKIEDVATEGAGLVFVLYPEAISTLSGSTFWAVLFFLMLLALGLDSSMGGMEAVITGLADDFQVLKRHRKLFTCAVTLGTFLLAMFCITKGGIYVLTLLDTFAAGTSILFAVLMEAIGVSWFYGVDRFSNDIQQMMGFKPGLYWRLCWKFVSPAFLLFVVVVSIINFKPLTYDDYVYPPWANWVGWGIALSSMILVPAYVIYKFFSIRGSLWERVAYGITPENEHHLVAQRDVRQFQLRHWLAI
Nature of the data set: Norepinephrine uptake binding assay: [3H]desipramine binding to rat cortical membranes.

Another data set deals with focal ischemic stroke. In words: Rat model of focal ischemic stroke (vessel occlusion). The data set is classed as in vivo, rats. As to conditions: i.p. 2 mg/kg 30 min prior to vessel occlusion and 2 mg/kg 3 hr post-occlusion.
A further data set has as its system T4, L-type calcium channel.
T4 construct: L-type calcium channel: estimated IC50, KCl depolarization-induced increases in intracellular calcium; other: cultured
In words: Inhibition of KCl depolarization-induced increases in intracellular calcium in cultured rat cerebellar granule cells. It is filed as cell-based. As to conditions: cultured rat cerebellar granule cells; read-out: L-type calcium channel: estimated IC50, KCl depolarization-induced increases in intracellular calcium. The source says:
The ability of arylalkylamines to inhibit dihydropyridine-sensitive Ca^2+ channels was examined in cerebellar granule cells and a rat aortic smooth muscle cell line, A7r5 cells.

pIC50: −log10 of the molar value. Where two headings read alike, the source gives them in different places. Marks after values point to notes of the source that are not given here.

For `NC(CCCP(=O)(O)O)C(=O)O` (stereo not shown) [AP5, reference compound], in the data set with NMDA receptor [1], the 50% inhibitory concentration (IC50) (usually the concentration at which inhibition is half-maximal) was found to be 15 µM. For the same compound, the “induction of LTP (p<0.05)” value in the data set with induction of LTP is given as “significantly blocked”.
Regarding `NC(CCCCCP(=O)(O)O)C(=O)O` (stereo not shown) [AP7, reference compound], the “induction of LTP (p<0.05)” value in the data set on induction of LTP is on record as “significantly blocked”.
In the case of `NCCCNCCCNCCCNC(=O)Cc1c[nH]c2ccc(F)cc12` [Compound 9], in [2] (at 100 μM), the “% inhibition of [3H]MK-801 binding at the stated concentration (IC50 study incomplete)” value is reported as “(10% at 100 μM)^d”. The half-maximal inhibitory concentration (IC50) in data set [2] is over 100 µM. Moreover, in the data set on NMDA receptor [1], the IC50 is 1.2 µM. Moreover, the “Suppression of NMDA Receptor-Mediated Synaptic Transmission (concentration which suppresses)” value in the data set on NMDA receptor [3] was in the range of 10 to 100 µM. Moreover, the “IC50, prevention of sound-induced seizures” value (“IC50, prevention” for short) with sound-induced seizures was 4.77 µg. Besides, the “TD50, acute motor impairment” value in the data set on motor performance came out at 14.8 µg. Besides, the “LTP Assay (block of the induction of LTP)” value in the data set with induction of LTP (at 300 μM) was “no block”. For the same compound, in data set [4] (4.5 μmoles/kg i.v., rats), the “Drop in Mean Arterial Blood Pressure” value is reported as 75 mm Hg at and the “Drop in Mean Arterial Blood Pressure: duration” value is reported as “i.v., 90 min”. In addition, the “duration of the hypotensive effect” value in [4] (systemic administration in rats) is given as “approximately 30 min”.
For `NCCCOCCCCOCCCNC(=O)Cc1c[nH]c2ccc(F)cc12` [Compound 12], the half-inhibitory concentration (IC50) in data set [2] amounted to 98 µM; in the data set with NMDA receptor [1], 6 µM. For the same compound, the “IC50, prevention” value in the data set on sound-induced seizures was determined as 12.2 µg. The “TD50, acute motor impairment” value in the data set with motor performance is 30.2 µg. Also, the “no effect on mean arterial blood pressure / no (significant) cardiovascular activity at doses up to” value was at most 37.3 µmol/kg in data set [4] (rats) and “up to 37.3 μmoles/kg” in [4] (rats, listed as Compounds 12).
With `NCCCOCCCCOCCCNC(=O)Cc1cccc2ccccc12` [Compound 14], the half-maximal inhibitory concentration (IC50) with NMDA receptor [1] is 8.8 µM. In addition, the “IC50, prevention” value with sound-induced seizures came to 13.9 µg. Moreover, in the data set with motor performance, the “TD50, acute motor impairment” value was 30.8 µg.
`C[C@H](CN)C(c1cccc(F)c1)c1cccc(F)c1` [Compound 34, 3,3-bis(3-fluorophenyl)-2-methyl-1-propylamine]: the half-inhibitory concentration (IC50) is 2.7 µM in [2] and 0.426 µM in the data set with NMDA receptor [1]. Further, the “Central muscarinic cholinergic receptor: percent block of [3H]QNB binding” value in data set [5] (at 0.1 μM) is 25% at; in data set [5] (at 10 μM), 0.199% at. Also, the “Monoamine uptake binding assays: serotonin uptake binding assay, percent block” value is 10^g12% at at serotonin uptake site (at 0.1 μM) and 0.1^h79% at on serotonin uptake site (at 10 μM). For the same compound, the 50% effective dose (ED50) – broadly, the dose at which the effect has come halfway, by size or by number of responders – in the data set with sound-induced seizures stood at 22 mg/kg. In addition, the behavioral effects result was “hyperthermia” in the data set with behavior (2 mg/kg i.p.); “no behavioral effects” in the data set with behavior (4 mg/kg i.p.); “excitation, increased reactivity to touch, and hypothermia” in the data set with behavior (8 mg/kg i.p.); “convulsions” with behavior (64 mg/kg i.p.); “excitation, Straub tail, tremor, jumping, stereotypies, hypothermia, and mydriasis” in the data set with behavior (16 and 32 mg/kg i.p.); “convulsions and death” in the data set on behavior (128 and 256 mg/kg i.p.). For the same compound, the TD50 in “in vivo” was in the range of 10 to 15 mg/kg. Also, the “Monoamine uptake binding assays: dopamine uptake binding assay, percent block” value on dopamine uptake site (at 0.1 μM) is reported as 60% at; on dopamine uptake site (at 10 μM) it was 0.1^f99% at. Also, the “Monoamine uptake binding assays: norepinephrine uptake binding assay, percent block” value in data set [6] (at 0.1 μM) is 10^f10% at; in [6] (at 10 μM), 0.1^g64% at.
Consider `CC(CN)C(c1cccc(Cl)c1)c1cccc(Cl)c1` (stereo not shown) [Compound 46], for which the IC50 in data set [2] is 5.2 µM; in the data set with NMDA receptor [1], 0.013 µM. In addition, the “Central muscarinic cholinergic receptor: percent block of [3H]QNB binding” value in data set [5] (at 0.1 μM) was 33% at; in [5] (at 10 μM) it was 0.189% at. The “Monoamine uptake binding assays: serotonin uptake binding assay, percent block” value is 10^g10% at at serotonin uptake site (at 0.1 μM) and 0.1^h75% at on serotonin uptake site (at 10 μM). Further, the 50% effective dose (ED50) in the data set on sound-induced seizures was 25 mg/kg. Also, the “neuroprotectant activity in a rat model of focal ischemic stroke” value with focal ischemic stroke is recorded as “no significant neuroprotectant activity”. This compound also returned a TD50 in “in vivo” of 18 to 21 mg/kg. The “Monoamine uptake binding assays: dopamine uptake binding assay, percent block” value on dopamine uptake site (at 0.1 μM) is reported as 40% at; at dopamine uptake site (at 10 μM), 0.1^f97% at. In addition, the pIC50 (in general, −log10 of the IC50, conventionally taken in molar units) in the data set with L-type calcium channel was 6.17. For the same compound, the results for the “Monoamine uptake binding assays: norepinephrine uptake binding assay, percent block” value in data set [6] (at 0.1 μM) and in data set [6] (at 10 μM) were 10^f7% at and 0.1^g64% at, respectively.
Take `C[C@@H](N)CC(c1cccc(F)c1)c1cccc(F)c1` [Compound 51, 3,3-bis(3-fluorophenyl)-1-methyl-1-propylamine]: the concentration for half-maximal inhibition (IC50) in data set [2] was 4.5 µM; with NMDA receptor [1], 1.1 µM. This compound returned a 50% effective dose (ED50) with sound-induced seizures of 9.1 mg/kg. Moreover, the “TD50 (motor impairment)” value in the data set with motor performance (i.p.) is listed as 13.6 mg/kg.
